Measured values published in publication PMC11201061, “Mechanistic Study of Antimicrobial Effectiveness of Cyclic Amphipathic Peptide [R4W4] against Methicillin-Resistant Staphylococcus aureus Clinical Isolates” (Antibiotics, 2024).
In brackets after ≈: the same amount, converted by molar mass. Where a SMILES comes first, the peptide text is derived from it.

How the values were obtained:
MRSA LAC = assay: Thermal stability by MIC after heat exposure; assay type: cell-based, Staphylococcus aureus; details: [R4W4] stock exposed to 25, 50, 75 and 100 °C (10 min), then microbroth dilution
Description: As per temperature sensitivity, the [R4W4] stock solution (1.15 mg/mL) in a 2 mL Eppendorf microtube was exposed to 100 °C for 10 min. After the thermal exposure, the [R4W4] antibacterial effectiveness was evaluated against MRSA using a microbroth dilution assay, as explained above.

in vitro = details: human, 25% human serum
Description: Fresh human serum (4 mL) was centrifuged at 12,500× g for 15 min at 4 °C to remove the lipids. A 25% human serum sample was prepared by adding 375 µL of the human serum supernatant to 1125 µL of RPMI buffer. […] The test sample was incubated in a water bath at 37 °C until a predetermined time interval (0, 1, 2, 4, 6, 8.5, 12, and 20 h). At the time intervals, a 150 µL aliquot test sample was added to a 300 µL cocktail solution [ethanol/formic acid (98:2 v/v) mixture] to cease the reaction. The test samples of aliquots were stored on dry ice for 20 min and then centrifuged at 17,200× g for 20 min. For LC-MS analysis, 150 µL supernatant aliquot test samples were stored at −20 °C [54].
A 20 μL aliquot of each sample was analyzed using an Xterra MS C18 column (3.9 × 150 mm, 5 μm, Waters, MA, USA), Nexera XR, and Prominence Shimadzu LC-20AD XR systems (Shimadzu Corporation, Kyoto, Japan) coupled with Shimadzu LC-MS-2020 mass spectrometer (Shimadzu, OR, USA). A two-component LC system consisted of mobile phase A (0.1% formic acid and 10% acetonitrile in water) and mobile phase B (0.1% formic acid and 100% acetonitrile). The flow rate was set at 1.0 mL/min. The Xterra MS C18 column at 40 °C was allowed to equilibrate with 95% mobile phase A. Peptides were loaded to the column and washed for 5 min with 95% mobile Phase A. Analytes were separated using a binary gradient of 0–95% mobile Phase B for 25 min. […] MS was conducted in multiple reaction monitoring and positive electrospray ionization mode. Fourteen concentrations of [R4W4] prepared by two-fold dilution of 200 μg/mL to 0.39 μg/mL were used to prepare calibration curves. The calibration curves were plotted using weighted (1/×2) least-squares linear regression analysis of peptide mass spectra area under the curve (AUC) versus concentration.

N=C(N)NCCC[C@@H]1NC(=O)[C@H](CCCNC(=N)N)NC(=O)[C@H](CCCNC(=N)N)NC(=O)[C@H](Cc2c[nH]c3ccccc23)NC(=O)[C@H](Cc2c[nH]c3ccccc23)NC(=O)[C@H](Cc2c[nH]c3ccccc23)NC(=O)[C@H](Cc2c[nH]c3ccccc23)NC(=O)[C@H](CCCNC(=N)N)NC1=O [[R4W4]] (cyclo(RRRRWWWW))
MIC after thermal exposure (MRSA LAC): 4 mg/L (≈ 2.92 µM) | half-life at 100 µg/mL (in vitro): > 20 h | remaining at 1 h, 100 µg/mL (in vitro): ~99% | remaining at 2 h, 100 µg/mL (in vitro): 93% | remaining at 6 h, 100 µg/mL (in vitro): 80% | remaining at 12 h, 100 µg/mL (in vitro): 77% | remaining at 20 h, 100 µg/mL (in vitro): 76%
